Results reported in DBAASP.
Converted amounts (≈) assume the structure as drawn. “And” between values parts separate entries of the source, which are not always exact repeats. Equal entries are not always repeated.

Tests used:
Assay in all cases: ≥ marks a high value that may be exact or a test limit, other limits are often not marked, values filed in µg/mL are converted to µM
[1] = system: Bacillus subtilis ATCC 23857
[2] = system: Candida albicans ATCC 10231
[3] = system: Escherichia coli ATCC 25922
[4] = system: Pseudomonas aeruginosa ATCC 27853
[5] = system: Staphylococcus aureus ATCC 25923
[6] = system: Staphylococcus aureus ATCC 33591
[7] = system: Acinetobacter baumannii ATCC 19606
Acinetobacter baumannii = system: Acinetobacter baumannii
[8] = system: Klebsiella pneumoniae ATCC 13883
Klebsiella pneumoniae = system: Klebsiella pneumoniae
[9] = system: Salmonella enterica subsp. enterica serovar Typhimurium ATCC 14028
Escherichia coli UB1005 = system: Escherichia coli UB1005
[10] = system: Salmonella enterica subsp. enterica serovar Typhimurium C77-31
[11] = system: Staphylococcus aureus ATCC 29213
[12] = system: Staphylococcus epidermidis ATCC 12228
[13] = system: Enterococcus faecalis ATCC 29212
[14] = system: Klebsiella pneumoniae ATCC 700603
[15] = system: Pseudomonas aeruginosa ATCC 9027
[16] = system: Pseudomonas aeruginosa PAO1
[17] = system: Staphylococcus aureus USA 300
Escherichia coli = system: Escherichia coli
Staphylococcus aureus = system: Staphylococcus aureus

Structure (SMILES) | MIC [3] | MIC [5] [µM] | MIC (Acinetobacter baumannii) [µM] | MIC [10] [µM] | MIC [11] | MIC [12] [µM] | further results
NC(=O)[C@H](CCCN=C(N)N)NC(=O)[C@H](CCCN=C(N)N)NC(=O)[C@H](Cc1ccccc1)NC(=O)[C@H](Cc1ccccc1)NC(=O)[C@H](CCCN=C(N)N)NC(=O)[C@H](CCCN=C(N)N)NC(=O)[C@H](Cc1ccccc1)NC(=O)[C@@H](N)Cc1ccccc1 [FFRRFFRR] | – | – | – | – | – | – | MIC [1]: ≥ 102 µM; MIC [2]: > 406 µM
C[C@@H](O)[C@H](NC(=O)[C@H](CCCN=C(N)N)NC(=O)[C@H](CCCN=C(N)N)NC(=O)[C@H](CCCN=C(N)N)NC(=O)[C@@H]1CCCN1C(=O)[C@@H](N)CO)C(=O)N1CCC[C@H]1C(=O)N[C@@H](CO)C(=O)N1CCC[C@H]1C(=O)N[C@@H](CCCN=C(N)N)C(=O)N[C@@H](CCCN=C(N)N)C(=O)N[C@@H](CCCN=C(N)N)C(=O)N[C@@H](CCCN=C(N)N)C(=O)N[C@@H](CO)C(=O)N[C@@H](CCC(N)=O)C(=O)N[C@@H](CO)C(=O)N1CCC[C@H]1C(=O)N[C@@H](CCCN=C(N)N)C(=O)N[C@@H](CCCN=C(N)N)C(=O)N[C@@H](CCCN=C(N)N)C(N)=O [SPRRRTPSPRRRRSQSPRRR] | 25 µM (≈ 63.6 µg/mL) | > 100 | – | – | – | – | MIC [4]: 100 µM (≈ 254 µg/mL); MIC [6]: ≥ 100 µM
CC(C)C[C@H](NC(=O)[C@H](CC(C)C)NC(=O)[C@H](CCCN=C(N)N)NC(=O)[C@H](CCCCN)NC(=O)[C@H](CCCN=C(N)N)NC(=O)[C@H](CC(C)C)NC(=O)[C@H](CCCCN)NC(=O)[C@H](CCCN=C(N)N)NC(=O)[C@H](CC(C)C)NC(=O)[C@@H](N)CS)C(=O)N[C@@H](CS)C(=O)O [CLRKLRKRLLC] | 17.1 µM (≈ 24 µg/mL) | – | 22.8 (≈ 32 µg/mL) | – | > 22.8 µM | – | MIC [13]: > 22.8 µM; MIC [4]: > 22.8 µM
CC(C)C[C@H](NC(=O)[C@H](C)NC(=O)[C@H](CCCCN)NC(=O)[C@H](CC(C)C)NC(=O)[C@H](CC(N)=O)NC(=O)[C@@H](N)CC(C)C)C(=O)N[C@@H](CC(C)C)C(=O)N[C@@H](C)C(=O)N[C@H](C(=O)N[C@@H](C)C(=O)N[C@@H](CCCCN)C(N)=O)C(C)C [LNLKALLAVAK] | > 128 µM | > 128 | – | – | – | – | MIC [1]: ≥ 128 µM; MIC [14]: > 128 µM; MIC [15]: > 128 µM
CC(C)C[C@H](NC(=O)[C@H](CC(C)C)NC(=O)[C@H](CCCCN)NC(=O)[C@H](CC(C)C)NC(=O)CNC(=O)[C@H](CC(C)C)NC(=O)[C@H](CO)NC(=O)[C@H](CC(C)C)NC(=O)[C@H](CC(C)C)NC(=O)[C@H](CO)NC(=O)[C@H](CC(C)C)NC(=O)[C@H](CC(C)C)NC(=O)CN)C(N)=O [GLLSLLSLGLKLL] | > 25 µM | – | – | – | – | – | MIC [8]: 25 µM (≈ 33.5 µg/mL); MIC [16]: > 25 µM; MIC [17]: 0.8 µM (≈ 1.07 µg/mL)
CC[C@H](C)[C@H](N)C(=O)N[C@H](C(=O)N[C@H](C(=O)N[C@@H](CCCCN)C(=O)N[C@@H](CO)C(=O)N[C@@H](CC(C)C)C(=O)NCC(=O)N[C@@H](CCCCN)C(=O)N[C@@H](Cc1ccccc1)C(=O)N[C@@H](CC(C)C)C(=O)N[C@@H](CCCCN)C(=O)N[C@@H](CC(N)=O)C(=O)N[C@H](C(=O)NCC(=O)NCC(=O)N[C@@H](Cc1ccccc1)C(=O)N[C@@H](C)C(=O)NCC(=O)O)C(C)C)[C@@H](C)CC)C(C)C [IVIKSLGKFLKNVGGFAG] | > 64 µM | > 64 | ≥ 64 | – | – | – | MIC [14]: > 64 µM; MIC [15]: > 64 µM
CC(C)C[C@H](NC(=O)CN)C(=O)N[C@@H](CC(C)C)C(=O)N[C@@H](CO)C(=O)N[C@@H](CC(C)C)C(=O)N[C@@H](CC(C)C)C(=O)N[C@@H](CO)C(=O)N[C@@H](CC(C)C)C(=O)N[C@@H](CC(C)C)C(=O)NCC(=O)N[C@@H](CCCCN)C(=O)N[C@@H](CC(C)C)C(=O)N[C@@H](C)C(N)=O [GLLSLLSLLGKLA] | 2.16 µM (≈ 2.8 µg/mL) | – | – | – | – | – | MIC [8]: 17.7 µM (≈ 22.9 µg/mL); MIC [16]: > 25 µM; MIC [17]: 1.56 µM (≈ 2.02 µg/mL)

More lines, main results first:

MIC [3] | MIC [5] [µM] | MIC (Acinetobacter baumannii) [µM] | MIC [10] [µM] | MIC [11] | MIC [12] [µM] | Structure (SMILES) | further results
– | > 30 | 2.6 (≈ 5.12 µg/mL) | – | – | – | CC(C)C[C@H](NC(=O)[C@H](CCCN=C(N)N)NC(=O)[C@H](CCCN=C(N)N)NC(=O)[C@H](C)NC(=O)[C@H](Cc1c[nH]c2ccccc12)NC(=O)CNC(=O)[C@H](CCCN=C(N)N)NC(=O)[C@@H](N)CCCN=C(N)N)C(=O)N[C@@H](Cc1ccccc1)C(=O)N[C@@H](Cc1ccccc1)C(=O)N[C@@H](C)C(=O)N[C@@H](Cc1ccc(O)cc1)C(=O)NCC(=O)N[C@@H](CCCN=C(N)N)C(=O)N[C@@H](CCCN=C(N)N)C(N)=O [RRGWARRLFFAYGRR] | MIC [7]: 1.7 µM and 1.5 µM; MIC [8]: 5.4 µM and 8.6 µM; MIC (Klebsiella pneumoniae): 1.2 µM (≈ 2.36 µg/mL); MIC [9]: 1.5 µM and 2.2 µM
4 µM (≈ 6.26 µg/mL) | 32 (≈ 50.1 µg/mL) | – | 16 (≈ 25 µg/mL) | 32 µM (≈ 50.1 µg/mL) | 64 (≈ 100 µg/mL) | CC(C)C[C@H](NC(=O)[C@H](CCCN=C(N)N)NC(=O)[C@H](CC(C)C)NC(=O)[C@H](CCCN=C(N)N)NC(=O)[C@@H](NC(=O)[C@H](CCCCN)NC(=O)[C@H](CC(C)C)NC(=O)[C@H](CCCN=C(N)N)NC(=O)[C@H](CC(C)C)NC(=O)[C@H](CCCN=C(N)N)NC(=O)[C@@H](N)CC(C)C)[C@@H](C)O)C(=O)N[C@@H](CCCCN)C(N)=O [LRLRLKTRLRLK] | MIC (Escherichia coli UB1005): 4 µM (≈ 6.26 µg/mL)
1 µM (≈ 2.86 µg/mL) | – | 2 (≈ 5.71 µg/mL) | – | 2 µM (≈ 5.71 µg/mL) | – | CC(C)C[C@H](NC(=O)[C@@H]1CCCN1C(=O)[C@H](CCCN=C(N)N)NC(=O)[C@H](Cc1ccc(O)cc1)NC(=O)[C@@H](NC(=O)[C@@H]1CCCN1C(=O)[C@H](CCCN=C(N)N)NC(=O)[C@H](Cc1ccc(O)cc1)NC(=O)[C@@H]1CCCN1C(=O)[C@@H]1CCCN1C(=O)[C@@H]1CCCN1C(=O)[C@H](CCCN=C(N)N)NC(=O)[C@H](Cc1ccc(O)cc1)NC(=O)[C@@H](NC(=O)[C@H](CC(N)=O)NC(=O)[C@@H](N)CO)C(C)C)C(C)C)C(=O)N[C@@H](CCCN=C(N)N)C(=O)N[C@@H](CCCN=C(N)N)C(=O)N1CCC[C@H]1C(=O)NCC(=O)N[C@@H](Cc1ccc(O)cc1)C(=O)N[C@@H](CCCN=C(N)N)C(=O)N1CCC[C@H]1C(N)=O [SNVYRPPPYRPVYRPLRRPGYRP] | MIC [7]: 2 µM (≈ 5.71 µg/mL); MIC (Escherichia coli): 2 µM (≈ 5.71 µg/mL); MIC (Staphylococcus aureus): 32 µM (≈ 91.4 µg/mL)
128 µM (≈ 188 µg/mL) | – | – | ≥ 128 | 128 µM (≈ 188 µg/mL) | > 128 | CC(C)C[C@H](NC(=O)[C@H](CCCN=C(N)N)NC(=O)[C@H](CC(N)=O)NC(=O)[C@H](C)NC(=O)[C@H](CCCN=C(N)N)NC(=O)[C@H](CC(C)C)NC(=O)[C@H](Cc1c[nH]c2ccccc12)NC(=O)[C@H](CC(C)C)NC(=O)[C@H](CCCN=C(N)N)NC(=O)[C@H](CCCN=C(N)N)NC(=O)[C@@H](N)CC(C)C)C(N)=O [LRRLWLRANRL] | MIC [13]: > 128 µM; MIC [4]: > 128 µM
4 µM and 8 µM | – | – | 4 (≈ 9.53 µg/mL) | 4 µM and 8 µM | 4 (≈ 9.53 µg/mL) | CC[C@H](C)[C@H](NC(=O)[C@H](CCCN=C(N)N)NC(=O)[C@H](CCCN=C(N)N)NC(=O)[C@H](CC(C)C)NC(=O)[C@H](CCCN=C(N)N)NC(=O)[C@H](Cc1c[nH]c2ccccc12)NC(=O)[C@H](CCCN=C(N)N)NC(=O)[C@@H](NC(=O)[C@H](CCCN=C(N)N)NC(=O)[C@H](Cc1c[nH]c2ccccc12)NC(=O)[C@H](CCCN=C(N)N)NC(=O)[C@H](CC(C)C)NC(=O)[C@H](CCCN=C(N)N)NC(=O)[C@H](CCCN=C(N)N)NC(=O)[C@H](Cc1ccccc1)NC(=O)[C@@H](N)CCCN=C(N)N)[C@@H](C)O)C(N)=O [RFRRLRWRTRWRLRRI] | MIC [13]: 2 µM (≈ 4.77 µg/mL); MIC (Escherichia coli UB1005): 2 µM (≈ 4.77 µg/mL)
16 µM (≈ 27.6 µg/mL) | 32 (≈ 55.2 µg/mL) | – | ≥ 64 | 64 µM (≈ 110 µg/mL) | 16 (≈ 27.6 µg/mL) | CC(C)C[C@H](NC(=O)[C@H](CCCN=C(N)N)NC(=O)[C@H](CCCCN)NC(=O)[C@H](CCCN=C(N)N)NC(=O)[C@@H](NC(=O)[C@H](Cc1c[nH]c2ccccc12)NC(=O)[C@H](CCCCN)NC(=O)[C@H](CCCN=C(N)N)NC(=O)[C@H](CC(C)C)NC(=O)[C@H](Cc1c[nH]c2ccccc12)NC(=O)[C@@H](N)CCCN=C(N)N)[C@@H](C)O)C(=O)N[C@@H](CCCCN)C(N)=O [RWLRKWTRKRLK] | MIC (Escherichia coli UB1005): 16 µM (≈ 27.6 µg/mL)
